According to the supplement of paper PMC8882468:

How the values were obtained:
Assay in all cases: CTG-3D luminescence at 96 h relative to day-0 seeding control (ratio to day 0); higher = more growth / less cytotoxicity; PDxO 3D drug screen, 96 h, CTG-3D normalised to day-0 seeding control.
[1] = test system: HCI-023 (organoid from a triple-negative breast cancer xenograft)
[2] = test system: MDA-MB-231
[3] = test system: HCI-017.E2 (organoid from an ER-positive breast cancer xenograft)
[4] = test system: HCI-002 (organoid from a triple-negative breast cancer xenograft)
[5] = test system: HCI-025 (organoid from a breast cancer xenograft)
[6] = test system: HCI-015 (organoid from a triple-negative breast cancer xenograft)

CCc1c2c(nc3ccc(O)cc13)-c1cc3c(c(=O)n1C2)COC(=O)[C@]3(O)CC [SN-38]
CTG-3D luminescence at 96 h
Settings	12.5 pM	0.00025 µM	0.005 µM	0.1 µM	1 µM	10 µM	100 µM	625 fM
[1], days in culture: 111	1.39	1.19	0.797	0.194	0.0332	0.0191	0.0103	1.53
[1], days in culture: 128	2.09	1.68	0.754	0.391	0.0587	0.0307	0.0252	1.9
[3], days in culture: 85	2.43	2.66	1.7	2.32	1.23	0.584	0.428	2.19
[4], days in culture: 62	3.11	2.44	1.01	0.53	0.117	0.0334	0.0217	3.05
[4], days in culture: 82	3.04	3.05	1.13	0.606	0.265	0.0317	0.0208	3.43
[4], days in culture: 91	3.6	2.86	0.92	0.659	0.289	0.0365	0.0217	3.54
[4], days in culture: 191	2.67	2.76	1.31	0.721	0.356	0.0269	0.0208	2.87
[4], days in culture: 209	2.21	2.28	0.962	0.556	0.155	0.0238	0.0205	2.49
[4], days in culture: 227	5.46	4.33	1.89	1.13	0.464	0.0608	0.038	5.49
[5], days in culture: 172	3.42	1.7	2.12	0.486	0.295	0.0768	0.0418	2.35
[5], days in culture: 209	1.97	2.36	1.12	0.295	0.181	0.0722	0.0384	1.53
[5], days in culture: 218	1.5	1.73	0.75	0.244	0.0898	0.0616	0.0407	1.53
[6], days in culture: 172	2.31	1.87	1.68	0.173	0.101	0.0365	0.0336	2.79
[6], days in culture: 191	1.52	1.32	0.538	0.0896	0.0635	0.0399	0.0305	1.5
[6], days in culture: 218	2.35	1.74	1.05	0.109	0.0491	0.0388	0.0388	1.97

CTG-3D luminescence at 96 h
Settings	12.5 pM	0.00025 µM	0.005 µM	0.1 µM	1 µM	10 µM	100 µM	625 fM
[2]	4.45	4.3	3.73	2.38	1.55	0.665	0.568	4.4
[3]	1.58	1.73	1.5	1.44	1.16	0.47	0.407	1.77

COc1cc2c(Oc3ccc4[nH]c(C)cc4c3F)ncnc2cc1OCCCN1CCCC1 [cediranib]
CTG-3D luminescence at 96 h
Settings	12.5 pM	0.00025 µM	0.005 µM	0.1 µM	1 µM	10 µM	100 µM	625 fM
[1], days in culture: 111	1.46	1.23	1.27	1.19	0.911	0.0116	-0.00068	1.41
[1], days in culture: 128	1.2	1.51	1.06	1.52	0.96	0.0129	-0.00109	1.48
[3], days in culture: 85	2.93	3.39	2.44	2.78	2.18	2.05	0.00763	2.35
[4], days in culture: 62	2.64	2.39	2.84	2.46	2.52	0.0315	-0.00243	2.92
[4], days in culture: 82	2.68	2.82	2.11	2.52	2.64	0.0265	0.00109	3.14
[4], days in culture: 91	4.4	3.53	3.54	4.14	3.86	0.0389	-0.00511	4.42
[4], days in culture: 191	2.49	2.65	2.32	2.43	2.47	0.0249	0.000973	2.52
[4], days in culture: 209	2.4	2.26	1.95	1.95	1.93	0.0194	-0.000945	2.14
[4], days in culture: 227	5.77	5.66	5.43	6.23	4.99	-0.101	-0.211	5.65
[5], days in culture: 172	2.66	1.84	3.42	1.99	2.79	0.0165	-0.00438	2.12
[5], days in culture: 209	1.77	1.18	1.76	1.47	2.18	0.022	-0.00409	1.31
[5], days in culture: 218	1.52	1.84	2.1	1.73	1.5	0.0433	-0.00599	1.86
[6], days in culture: 172	2.29	1.76	2.22	1.47	2.43	0.0376	-0.0013	2.51
[6], days in culture: 191	2.09	1.61	1.52	1.16	1.39	0.0236	-0.00165	1.33
[6], days in culture: 218	1.26	1.53	1.55	1.85	1.49	0.0308	-0.00209	1.68

CTG-3D luminescence at 96 h
Settings	12.5 pM	0.00025 µM	0.005 µM	0.1 µM	1 µM	10 µM	100 µM	625 fM
[2]	4.34	4.3	4.48	4.29	4.44	1.46	0.0107	4.45
[3]	1.74	2.27	2.12	2.09	1.751	1.81	0.00813	2.35
